Laboratory results taken from PubChem BioAssay (NCI).
Where “and” joins values, the source holds several entries; their conditions need not be identical. Equal values may be shown once.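 Tested at 5 concentrations; 48 h exposure; 96-well plates; endpoints linearly interpolated, else capped at highest concentration. GI50: concentration for 50% inhibition of growth. At the TGI there is no net growth.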

What was measured:
Assay in all cases: NCI anticancer screen, dose series, 48 h
RPMI-8226 leukemia = test system: RPMI-8226 leukemia
OVCAR-3 ovarian = test system: OVCAR-3 ovarian
SNB-19 CNS = test system: SNB-19 CNS
SK-MEL-28 melanoma = test system: SK-MEL-28 melanoma
OVCAR-4 ovarian = test system: OVCAR-4 ovarian
NCI-H522 lung = test system: NCI-H522 lung
HOP-92 NSCLC = test system: HOP-92 NSCLC
SK-MEL-5 melanoma = test system: SK-MEL-5 melanoma
SF-295 CNS = test system: SF-295 CNS
RXF 393 renal = test system: RXF 393 renal

| Compound | TGI (RPMI-8226 leukemia) | TGI (OVCAR-3 ovarian) | TGI (SNB-19 CNS) | TGI (SK-MEL-28 melanoma) | TGI (OVCAR-4 ovarian) | TGI (NCI-H522 lung) | TGI (HOP-92 NSCLC) | TGI (SK-MEL-5 melanoma) [µM] | TGI (SF-295 CNS) | GI50 (RPMI-8226 leukemia) [µM] | GI50 (OVCAR-3 ovarian) [µM] | GI50 (RXF 393 renal) | GI50 (SNB-19 CNS) [µM] | GI50 (SK-MEL-28 melanoma) [µM] | GI50 (OVCAR-4 ovarian) [µM] | GI50 (NCI-H522 lung) [µM] | GI50 (HOP-92 NSCLC) [µM] | GI50 (SF-295 CNS) [µM] | TGI (RXF 393 renal) | GI50 (SK-MEL-5 melanoma) [µM] |
| --- | --- | --- | --- | --- | --- | --- | --- | --- | --- | --- | --- | --- | --- | --- | --- | --- | --- | --- | --- | --- |
| COc1ccc2c(c1OC)C(C=C(c1ccccc1)c1ccccc1)CN(C)C2 (stereo not given) | 50.8 µM | 59.9 µM | > 100 µM | 57.9 µM | > 100 µM | 41.5 µM | 40.1 µM | 29.7 | 80.3 µM | – | – | – | – | – | – | – | – | – | – | – |
| CSC1SCC2C(=O)N(C)C(C(C)C)C(=O)OCC(NC(=O)c3cnc4ccccc4n3)C(=O)NC(C)C(=O)N(C)C1C(=O)N(C)C(C(C)C)C(=O)OCC(NC(=O)c1cnc3ccccc3n1)C(=O)NC(C)C(=O)N2C (stereo not given) | – | – | – | – | – | – | – | – | – | < 0.001 | < 0.001 | < 0.001 µM | < 0.001 | < 0.001 | < 0.001 | < 0.001 | < 0.001 | < 0.001 | – | – |
| CCC(=O)Nc1ncnc2ncn(C(=O)CC)c12 | > 100 µM | > 100 µM | > 100 µM | > 100 µM | > 100 µM | > 100 µM | > 100 µM | – | > 100 µM | – | – | – | – | – | – | – | – | – | > 100 µM | – |
| C=C1C(=O)O[C@H]2[C@H]1CC/C(Cn1cc(-c3ccsc3)nn1)=C\CC[C@@]1(C)O[C@@H]21 | – | 2.28 µM | 23.2 µM | 4.02 µM | 7.61 µM | 3.17 µM | 3.62 µM | 3.88 | 21.5 µM | – | 1.06 | 1.07 µM | 9.49 | 1.81 | 2.48 | 1.39 | 1.66 | 9.61 | 2.46 µM | 1.83 |
| Cc1ccc(-c2cc(=O)c3cc(C)c(C)c(C(=O)O)c3o2)cc1[N+](=O)[O-] | > 100 µM | > 100 µM | > 100 µM | > 100 µM | > 100 µM | > 100 µM | – | > 100 | > 100 µM | – | – | – | – | – | – | – | – | – | > 100 µM | – |
| C/C(=N\NS(=O)(=O)c1c(C)cc(C)cc1C)c1ccc[n+]([O-])n1 | 31.4 µM | 25.3 µM | > 100 µM | 27.6 µM | 44.6 µM | 21 µM | 22.8 µM | > 100 | > 100 µM | – | – | – | – | – | – | – | – | – | – | – |
| COc1cccc(NC(=O)c2ccc(NC3=C(Cl)C(=O)N(Cc4ccccc4)C3=O)cc2)c1 | – | 15.3 µM | 60.1 µM | 28 µM | > 100 µM | 8.87 µM | – | 26.9 | 28.8 µM | – | 3.29 | 2.09 µM | 19.1 | 11.5 | 22 | 2.49 | – | 10.5 | 14.9 µM | 14 |
| CCC(C)(C)NS(=O)(=O)c1ccccc1 | > 100 µM | > 100 µM | – | > 100 µM | > 100 µM | – | – | > 100 | > 100 µM | – | – | – | – | – | – | – | – | – | > 100 µM | – |
| CC(C)C1NC(=O)[C@H](C)OC(=O)[C@@H](C(C)C)NC(=O)[C@@H](C)OC(=O)C(C(C)C)NC(=O)[C@H](C)OC1=O (stereo not given in full) | > 68.8 µM | > 100 µM | > 100 µM | > 100 µM | > 100 µM | > 100 µM | > 100 µM | > 100 | > 100 µM | – | – | – | – | – | – | – | – | – | – | – |
| CC(C)c1cc(C(=O)[O-])c(O)c(C(C)C)c1.CC(C)c1cc(C(=O)[O-])c(O)c(C(C)C)c1.CC(C)c1cc(C(=O)[O-])c(O)c(C(C)C)c1.CC(C)c1cc(C(=O)[O-])c(O)c(C(C)C)c1.CC(C)c1cc(C(=O)[O-])c(O)c(C(C)C)c1.CC(C)c1cc(C(=O)[O-])c(O)c(C(C)C)c1.[Cu+2].[Mn+2].[Mn+2] | 50.4 µM | 10.4 µM | 47.8 µM | 45.3 µM | 47.8 µM | 25.1 µM | 54 µM | 32.3 | 49.5 µM | 14.5 | 2.87 | – | 20.8 | 20.5 | 16.1 | 10.9 | 19.9 | 18.1 | – | 17.1 |
| CCOC(=O)c1csc(-c2nc(CCNC(=O)c3ccccc3)sc2Cl)n1 | > 100 µM | > 100 µM | > 100 µM | > 100 µM | – | – | 46.4 µM | > 100 | > 100 µM | – | – | – | – | – | – | – | – | – | > 100 µM | – |
| CC(CCC(=O)O)c1ccc(Br)cc1 (stereo not given) | > 100 µM | > 100 µM | > 100 µM | > 100 µM | > 100 µM | > 100 µM | – | > 100 | > 100 µM | – | – | – | – | – | – | – | – | – | > 100 µM | – |
| Clc1ccc(COC(Cn2ccnc2)c2ccc(Cl)cc2Cl)c(Cl)c1 (stereo not given) | 18.8 µM and 37.7 µM | 17.1 µM and 25 µM and 21.5 µM | 14.6 µM and 29.6 µM and 29.3 µM | 17.8 µM and 34.2 µM and 26 µM | 18.4 µM and 23.3 µM and 25.7 µM | 23.7 µM and 22.8 µM | 8.44 µM and 27.1 µM | – | 8.73 µM and 23.7 µM and 23.8 µM | 3.67 | 5.35 | 2.78 µM and 12.1 µM and 3.84 µM | 3.24 | 4.96 | 2.91 | – | 1.74 | 2.29 | 10.5 µM and 26 µM and 14.5 µM | – |
| COc1cc(=O)oc(/C=C/C=C/C=C/C(C)=C\C2(C)OC(C)C(C)(O)C2O)c1C (stereo not given) | > 100 µM | > 100 µM | > 100 µM | > 100 µM | – | – | > 100 µM | > 100 | > 100 µM | – | – | – | – | – | – | – | – | – | – | – |
| COC(=O)[C@H](Cc1cn(C)cn1)NC(=O)[C@@H](NC(=O)Nc1cc(C(F)(F)F)cc(C(F)(F)F)c1)C(C)(C)C | > 10 µM | > 10 µM | > 10 µM | > 10 µM | > 10 µM | – | – | > 10 | > 10 µM | > 10 | > 10 | > 10 µM | > 10 | > 10 | > 10 | – | – | > 10 | > 10 µM | > 10 |
| COc1ccc(/C=C2\CCc3ccccc3C2=O)cc1OC | 64.8 µM | > 100 µM | > 100 µM | 73.2 µM | 79.6 µM | 47 µM | – | 30.9 | 95.9 µM | – | – | – | – | – | – | – | – | – | – | – |
| N#CC(C(=O)O)C(c1c(Cl)cccc1Cl)C(C#N)C(=O)O (stereo not given) | > 100 µM | > 100 µM | > 100 µM | > 100 µM | > 100 µM | > 100 µM | > 100 µM | > 100 | > 100 µM | – | – | – | – | – | – | – | – | – | – | – |
| O=C(CC1SC(=Nc2ccccc2Cl)NC1=O)Nc1ccc(Cl)cc1 (stereo not given) | – | – | > 100 µM | > 100 µM | > 100 µM | – | – | > 100 | > 100 µM | – | – | – | – | – | – | – | – | – | > 100 µM | – |
| COc1c(N2CCN(CN3C(=O)C(=O)c4ccccc43)C(C)C2)c(F)cc2c(=O)c(C(=O)O)cn(C3CC3)c12 (stereo not given) | > 100 µM | > 100 µM | > 100 µM | > 100 µM | > 100 µM | > 100 µM | – | > 100 | > 100 µM | 78.7 | 98.7 | > 100 µM | > 100 | > 100 | > 100 | > 100 | – | > 100 | > 100 µM | 35.3 |
| [N-]=[N+]=NC1C2CC3CC(C2)CC1C3 (stereo not given) | > 100 µM | > 100 µM | > 100 µM | > 100 µM | > 100 µM | > 100 µM | > 100 µM | > 100 | > 100 µM | – | – | – | – | – | – | – | – | – | – | – |
| CCN(CC)/[N+]([O-])=N/OCC(C)O (stereo not given) | – | > 100 µM | > 100 µM | > 100 µM | – | > 100 µM | > 100 µM | > 100 | > 100 µM | – | – | – | – | – | – | – | – | – | > 100 µM | – |
| Fc1ccc2c(c1)cc1ccc3cccc4ccc2c1c34 | – | > 100 µM | > 100 µM | > 100 µM | > 100 µM | > 100 µM | > 100 µM | > 100 | > 100 µM | – | – | – | – | – | – | – | – | – | > 100 µM | – |
| Cc1nc2ccccc2c(/C=C/c2ccccc2)c1C(=O)/C=C/c1ccccc1 | – | – | 2.96 µM | 3.3 µM | – | – | – | 3.17 | 8.36 µM | – | – | 1.78 µM | 1.6 | 1.83 | – | – | – | 2.8 | 3.22 µM | 1.77 |
| CCCCCCCCCCCCC(NC(C)=O)(C(=O)OCC)C(=O)OCC | 44.8 µM | 25.4 µM | 25.6 µM | 26.9 µM | 22.2 µM | – | 25.4 µM | 16 | 26.9 µM | 10.8 | 11.7 | 13.7 µM | 12.8 | 13.5 | 10.4 | – | 12.2 | 11.2 | 27 µM | 3.87 |
| CCOc1ncnc2ccc(Cl)c(I)c12 | > 100 µM | > 100 µM | > 100 µM | > 100 µM | > 100 µM | – | – | > 100 | > 100 µM | – | – | – | – | – | – | – | – | – | 60.7 µM | – |
| CN[C@H]1CC[C@]23C[C@]24CC[C@]2(C)[C@@H]([C@H](C)N(C)C)CC[C@@]2(C)[C@@H]4CC[C@H]3C1(C)C | 31.3 µM | 33.6 µM | 43.3 µM | 25.8 µM | 53.7 µM | 34.1 µM | 26 µM | 29.4 | 31.2 µM | – | – | – | – | – | – | – | – | – | – | – |
| COC(=O)C1=C(O)c2cc3c(cc2[C@H](c2cc(OC)c(OC)c(OC)c2)C1)OCO3 | > 100 µM | 55.7 µM | > 100 µM | > 100 µM | > 100 µM | – | > 100 µM | 61.1 | > 100 µM | – | – | – | – | – | – | – | – | – | > 100 µM | – |
| CCOC(=O)NC(=O)c1cn(C2OC(COC(=O)CCCCCCCCC(=O)OCC3OC(n4cc(C(=O)NC(=O)OCC)c(=O)[nH]c4=O)C4OC(C)(C)OC34)C3OC(C)(C)OC32)c(=O)[nH]c1=O (stereo not given) | > 100 µM | > 100 µM | > 100 µM | > 100 µM | > 100 µM | – | > 100 µM | > 100 | > 100 µM | – | – | – | – | – | – | – | – | – | > 100 µM | – |
